Source: US10961189B2, “Spiro-lactam NMDA receptor modulators and uses thereof” (Aptinyx Inc., priority 2016, dated 2021)
Where two headings read alike, the source gives them in different places.

Tests used:
IV pharmacokinetics = format: in vivo, Sprague Dawley rats; details: rat, normal saline (* in 5% NMP, 5% Solutol HS, 90% normal saline); for AUC(0-t) / half-life / C0 / Vd: Sprague-Dawley, in vivo; for C0: read-out: C0; for Vd: read-out: Vss
From the text: The table below summarizes the results of the IV pharmacokinetics.

NMDAR2A = target: T1, NMDAR2A (Homo sapiens, UniProt Q12879); assay: [3H]MK-801 binding in NMDAR expressing HEK cell membranes (facilitation of NMDAR activation); format: biochemical; details: 50 μM glutamate; for EC50: read-out: B: log EC50 (converted); for Emax: 0.25 h, read-out: A: % maximal [3H]MK-801 binding relative to 1 mM glycine
T1 construct: expressed in transfected cells; host or cells: HEK cells (membrane extract)
T1 sequence (Q12879 23-1464, species assumed, other chains not shown): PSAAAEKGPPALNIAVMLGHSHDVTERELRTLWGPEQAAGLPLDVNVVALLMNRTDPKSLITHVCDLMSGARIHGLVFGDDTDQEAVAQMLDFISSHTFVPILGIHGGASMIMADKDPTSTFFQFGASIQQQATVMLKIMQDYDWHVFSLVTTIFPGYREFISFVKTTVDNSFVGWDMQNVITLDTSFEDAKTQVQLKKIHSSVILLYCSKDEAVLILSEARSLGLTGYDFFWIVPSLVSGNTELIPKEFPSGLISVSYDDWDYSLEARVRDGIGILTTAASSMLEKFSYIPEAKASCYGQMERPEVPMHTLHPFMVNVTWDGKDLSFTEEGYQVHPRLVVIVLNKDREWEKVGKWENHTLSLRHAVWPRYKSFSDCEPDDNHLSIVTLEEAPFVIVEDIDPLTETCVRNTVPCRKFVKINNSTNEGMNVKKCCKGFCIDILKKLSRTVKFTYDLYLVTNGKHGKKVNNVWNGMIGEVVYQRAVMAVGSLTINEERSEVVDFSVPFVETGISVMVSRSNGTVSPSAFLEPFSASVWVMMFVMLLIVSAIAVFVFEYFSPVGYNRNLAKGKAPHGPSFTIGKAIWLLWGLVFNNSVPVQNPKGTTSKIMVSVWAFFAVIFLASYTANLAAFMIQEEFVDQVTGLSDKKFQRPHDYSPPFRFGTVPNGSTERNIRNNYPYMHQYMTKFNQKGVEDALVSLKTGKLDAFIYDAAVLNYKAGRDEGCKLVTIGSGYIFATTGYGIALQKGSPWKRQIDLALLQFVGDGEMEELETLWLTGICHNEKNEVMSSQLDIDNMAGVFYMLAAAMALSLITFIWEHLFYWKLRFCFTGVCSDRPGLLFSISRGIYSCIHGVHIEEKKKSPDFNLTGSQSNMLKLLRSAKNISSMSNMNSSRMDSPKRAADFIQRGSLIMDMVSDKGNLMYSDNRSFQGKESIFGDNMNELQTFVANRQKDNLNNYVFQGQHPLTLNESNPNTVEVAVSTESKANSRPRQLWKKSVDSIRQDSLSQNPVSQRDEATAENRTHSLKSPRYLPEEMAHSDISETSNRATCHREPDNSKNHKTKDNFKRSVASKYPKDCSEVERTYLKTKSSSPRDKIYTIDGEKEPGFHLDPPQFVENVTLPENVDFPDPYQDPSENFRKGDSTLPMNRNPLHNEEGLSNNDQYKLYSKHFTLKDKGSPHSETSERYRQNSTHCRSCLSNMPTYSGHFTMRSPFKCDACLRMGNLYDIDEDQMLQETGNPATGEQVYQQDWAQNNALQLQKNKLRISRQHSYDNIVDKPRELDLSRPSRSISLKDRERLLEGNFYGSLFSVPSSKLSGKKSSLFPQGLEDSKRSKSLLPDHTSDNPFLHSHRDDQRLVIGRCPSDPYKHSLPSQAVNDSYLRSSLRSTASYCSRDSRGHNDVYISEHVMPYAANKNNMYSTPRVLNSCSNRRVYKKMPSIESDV
Procedure: (§1) Assays were conducted as described by Moskal et al., “GLYX-13: a monoclonal antibody-derived peptide that acts as an N-methyl-D-aspartate receptor modulator,” Neuropharmacology, 49, 1077-87, 2005. These studies were designed to determine if the test compounds act to facilitate NMDAR activation in NMDAR2A, NMDAR2B, NMDAR2C or NMDAR2D expressing HEK cell membranes as measured by increases in [^3H]MK-801 binding.
(§2) In the assay, 300 μg of NMDAR expressing HEK cell membrane extract protein was preincubated for 15 minutes at 25° C. in the presence of saturating concentrations of glutamate (50 μM) and varying concentrations of test compound (1×10^15M−1×10^−7M), or 1 mM glycine. Following the addition of 0.3 μCi of [^3H]MK-801 (22.5 Ci/mmol), reactions were again incubated for 15 minutes at 25° C. (nonequilibrium conditions). Bound and free [^3H]MK-801 were separated via rapid filtration using a Brandel apparatus.
(§3) In analyzing the data, the DPM (disintegrations per minute) of [^3H]MK-801 remaining on the filter were measured for each concentration of test compound or for 1 mM glycine. The DPM values for each concentration of a ligand (N=2) were averaged. The baseline value was determined from the best fit curve of the DPM values modeled using the GraphPad program and the log(agonist) vs. response (three parameters) algorithm was then subtracted from all points in the dataset. The % maximal [^3H]MK-801 binding was then calculated relative to that of 1 mM glycine: all baseline subtracted DPM values were divided by the average value for 1 mM glycine. The EC50 and % maximal activity were then obtained from the best fit curve of the % maximal [^3H]MK-801 binding data modelled using the GraphPad program and the log(agonist) vs. response (three parameters) algorithm.
(§4) The tables below summarize the results for the wild type NMDAR agonists NMDAR2A, NMDAR2B, NMDAR2C, and NMDAR2D, and whether the compound is not an agonist (−), is an agonist (+), or is a strong agonist (++), where column A is based on the % maximal [^3H]MK-801 binding relative to 1 mM glycine (−=0; <100%=+; and >100%=++); and column B is based on log EC50 values (0=−; ≥1×10^−9 M (e.g., −8)=+; and <1×10^−9 M (e.g., −10)=++).

NMDAR2B = target: T2, NMDAR2B (Homo sapiens, UniProt Q13224); assay: as above; format: biochemical; details: 50 μM glutamate; for Emax: 0.25 h, read-out: A: % maximal [3H]MK-801 binding relative to 1 mM glycine; for EC50: read-out: B: log EC50 (converted)
T2 construct: expressed in transfected cells; host or cells: HEK cells (membrane extract)
T2 sequence (Q13224 27-1484, species assumed, other chains not shown): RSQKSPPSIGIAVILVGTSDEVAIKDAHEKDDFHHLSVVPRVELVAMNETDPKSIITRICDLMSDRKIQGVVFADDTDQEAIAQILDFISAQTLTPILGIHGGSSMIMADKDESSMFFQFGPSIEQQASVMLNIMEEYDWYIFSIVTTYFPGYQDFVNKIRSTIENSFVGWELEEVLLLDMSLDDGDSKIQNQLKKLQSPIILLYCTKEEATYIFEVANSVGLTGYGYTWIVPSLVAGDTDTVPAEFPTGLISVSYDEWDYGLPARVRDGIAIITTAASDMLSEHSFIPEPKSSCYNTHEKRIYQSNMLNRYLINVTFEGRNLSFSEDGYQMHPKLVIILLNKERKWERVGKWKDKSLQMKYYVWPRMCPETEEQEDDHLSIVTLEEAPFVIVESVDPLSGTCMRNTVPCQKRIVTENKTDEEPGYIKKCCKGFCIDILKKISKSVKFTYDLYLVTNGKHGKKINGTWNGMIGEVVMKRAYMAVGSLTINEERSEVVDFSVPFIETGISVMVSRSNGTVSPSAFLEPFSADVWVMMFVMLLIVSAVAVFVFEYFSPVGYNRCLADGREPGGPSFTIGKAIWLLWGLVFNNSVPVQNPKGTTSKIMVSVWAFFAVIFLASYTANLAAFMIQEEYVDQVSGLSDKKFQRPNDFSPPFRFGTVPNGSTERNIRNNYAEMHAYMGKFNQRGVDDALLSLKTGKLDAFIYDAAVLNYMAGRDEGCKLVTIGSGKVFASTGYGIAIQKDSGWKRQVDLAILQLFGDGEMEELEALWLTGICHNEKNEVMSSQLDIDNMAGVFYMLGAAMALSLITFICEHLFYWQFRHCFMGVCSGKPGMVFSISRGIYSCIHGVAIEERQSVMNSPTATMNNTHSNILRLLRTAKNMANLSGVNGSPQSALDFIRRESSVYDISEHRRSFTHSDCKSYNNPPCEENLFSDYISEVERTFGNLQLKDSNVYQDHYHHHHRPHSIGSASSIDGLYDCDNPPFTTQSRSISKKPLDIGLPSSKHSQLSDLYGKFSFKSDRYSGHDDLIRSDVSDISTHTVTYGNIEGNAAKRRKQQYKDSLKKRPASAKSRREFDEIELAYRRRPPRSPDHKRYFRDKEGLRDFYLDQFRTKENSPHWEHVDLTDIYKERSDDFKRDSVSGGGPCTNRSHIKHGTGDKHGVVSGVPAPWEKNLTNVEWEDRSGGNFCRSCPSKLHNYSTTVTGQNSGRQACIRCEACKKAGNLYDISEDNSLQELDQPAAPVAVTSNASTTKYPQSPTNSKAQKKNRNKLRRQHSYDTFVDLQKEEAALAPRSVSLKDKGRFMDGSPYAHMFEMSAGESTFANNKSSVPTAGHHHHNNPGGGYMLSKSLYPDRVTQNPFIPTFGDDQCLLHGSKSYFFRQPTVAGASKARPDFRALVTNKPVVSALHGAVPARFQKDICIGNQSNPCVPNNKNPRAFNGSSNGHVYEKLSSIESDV
Procedure: as §1, §2, §3, §4

[1] = oral pharmacokinetics (plasma, brain, CSF); format: in vivo, Sprague Dawley rats; details: rat, per os 10 mg/kg; for AUC(0-t) / bioavailability / Tmax / Cmax: Sprague-Dawley, plasma, po; for Tmax: normal saline (* in 5% NMP, 5% Solutol HS, 90% normal saline), read-out: Tmax; for Cmax: read-out: Cmax
Procedure: In another experiment, Sprague Dawley rats were dosed per os using a normal saline formulation containing 10 mg/kg of the compounds identified in the table below (except for the compounds marked with an asterisk (“*”) that were delivered in 5% NMP, 5% Solutol® HS and 90% normal saline formulation). Plasma, brain, and CSF samples were analyzed at various time points over a 24 hour period.

CC1CCC2(CC1)CN([C@H](C(N)=O)[C@@H](C)O)C2=O (mixture of isomers) [Compound AN, (2S,3R)-3-hydroxy-2-(7-methyl-1-oxo-2-azaspiro[3.5]nonan-2-yl)butanamide]
AUC(0-t) (IV pharmacokinetics; iv, 2 mg/kg): 1470 ng·h/mL | half-life (IV pharmacokinetics; iv, 2 mg/kg): 19.2 min | C0 (IV pharmacokinetics; iv, 2 mg/kg): 3100 ng/mL | Vd (IV pharmacokinetics; iv, 2 mg/kg): 0.59 L/kg | CI (IV pharmacokinetics; intravenous 2 mg/kg): 22.44 mL/min/kg | EC50 (NMDAR2A): < 1 nM | Emax (NMDAR2A): < 100% | Emax (NMDAR2B): 0% | AUC(0-t) ([1]; 10 mg/kg): 4850 ng·h/mL | bioavailability ([1]; 10 mg/kg): 66% | Tmax ([1]; 10 mg/kg): 15 min | Cmax ([1]; 10 mg/kg): 4330 ng/mL | CSF Cmax [1]: 1384.82 ng/mL | Brain Cmax [1]: 1501.76 ng/mL

COc1ccc(CN2CC3(CCC(OCc4ccccc4)CC3)C2=O)cc1 (single isomer, unassigned) [AE, 7-(benzyloxy)-2-(4-methoxybenzyl)-2-azaspiro[3.5]nonan-1-one]
A: % maximal [3H]MK-801 binding relative to 1 mM glycine (NMDAR2A): + (<100%=+) | EC50 (NMDAR2A): < 1 nM | A: % maximal [3H]MK-801 binding relative to 1 mM glycine (NMDAR2B): − (−=0)

COc1ccc(CN2CC3(CCC(OCc4ccccc4)CC3)C2=O)cc1 (single isomer, unassigned) [AF, 7-(benzyloxy)-2-(4-methoxybenzyl)-2-azaspiro[3.5]nonan-1-one]
A: % maximal [3H]MK-801 binding relative to 1 mM glycine (NMDAR2A): − (−=0) | A: % maximal [3H]MK-801 binding relative to 1 mM glycine (NMDAR2B): + (<100%=+) | EC50 (NMDAR2B): < 1 nM

CC1CCC2(CC1)CN(C(CCC(N)=O)C(N)=O)C2=O (single isomer, unassigned) [BE, 2-(7-methyl-1-oxo-2-azaspiro[3.5]nonan-2-yl)pentanediamide]
A: % maximal [3H]MK-801 binding relative to 1 mM glycine (NMDAR2A): − (−=0) | EC50 (NMDAR2B): < 1 nM | Emax (NMDAR2B): < 100%

CC1CCC2(CC1)CN(C(CO)C(=O)O)C2=O (single isomer, unassigned) [EM, 3-hydroxy-2-(7-methyl-1-oxo-2-azaspiro[3.5]nonan-2-yl)propanoic acid]
EC50 (NMDAR2A): < 1 nM | Emax (NMDAR2A): < 100% | A: % maximal [3H]MK-801 binding relative to 1 mM glycine (NMDAR2B): − (−=0)

CC1CCC2(CC1)CN(C(CO)C(=O)O)C2=O (single isomer, unassigned) [EN, 3-hydroxy-2-(7-methyl-1-oxo-2-azaspiro[3.5]nonan-2-yl)propanoic acid]
AUC(0-t) (IV pharmacokinetics; iv, 2 mg/kg): 1760 ng·h/mL | half-life (IV pharmacokinetics; iv, 2 mg/kg): 440 min | C0 (IV pharmacokinetics; iv, 2 mg/kg): 9440 ng/mL | Vd (IV pharmacokinetics; iv, 2 mg/kg): 1.16 L/kg | CI (IV pharmacokinetics; intravenous 2 mg/kg): 19.38 mL/min/kg | A: % maximal [3H]MK-801 binding relative to 1 mM glycine (NMDAR2A): + (<100%=+) | EC50 (NMDAR2A): < 1 nM | A: % maximal [3H]MK-801 binding relative to 1 mM glycine (NMDAR2B): + (<100%=+) | EC50 (NMDAR2B): < 1 nM | AUC(0-t) ([1]; 10 mg/kg): 2210 ng·h/mL | bioavailability ([1]; 10 mg/kg): 25% | Tmax ([1]; 10 mg/kg): 15 min | Cmax ([1]; 10 mg/kg): 1490 ng/mL | CSF Cmax [1]: 22 ng/mL | Brain Cmax [1]: 61 ng/mL

O=C1NCC12CCC(OCc1ccccc1)CC2 (stereo not shown) [AJ, 7-(benzyloxy)-2-azaspiro[3.5]nonan-1-one]
Emax (NMDAR2A): 0% | Emax (NMDAR2B): 0%

O=C1NCC12CCC(O)CC2 (stereo not shown) [AK, 7-hydroxy-2-azaspiro[3.5]nonan-1-one]
Emax (NMDAR2A): 0% | A: % maximal [3H]MK-801 binding relative to 1 mM glycine (NMDAR2B): − (−=0)

COc1ccc(CN2CC3(CCC(C)CC3)C2=O)cc1 (stereo not shown) [Compound AC, 2-(4-methoxybenzyl)-7-methyl-2-azaspiro[3.5]nonan-1-one]
Emax (NMDAR2A): 0% | Emax (NMDAR2B): 0%

C[C@@H](O)[C@@H](C(N)=O)N1CC2(CCC(O)CC2)C1=O (stereo partly drawn) [Compound AM, (2S,3R)-3-hydroxy-2-(7-hydroxy-1-oxo-2-azaspiro[3.5]nonan-2-yl)butanamide]
Emax (NMDAR2A): 0% | Emax (NMDAR2B): 0%

CC1CCC2(CC1)CN(CC(N)=O)C2=O (stereo not shown) [Compound BC, 2-(7-methyl-1-oxo-2-azaspiro[3.5]nonan-2-yl)acetamide]
AUC(0-t) (IV pharmacokinetics; iv, 2 mg/kg): 233 ng·h/mL | half-life (IV pharmacokinetics; iv, 2 mg/kg): 13.2 min | C0 (IV pharmacokinetics; iv, 2 mg/kg): 658 ng/mL | Vd (IV pharmacokinetics; iv, 2 mg/kg): 2.67 L/kg | CI (IV pharmacokinetics; intravenous 2 mg/kg): 145.13 mL/min/kg | EC50 (NMDAR2A): < 1 nM | Emax (NMDAR2A): < 100% | Emax (NMDAR2B): 0% | AUC(0-t) ([1]; 10 mg/kg): 612 ng·h/mL | bioavailability ([1]; 10 mg/kg): 52% | Tmax ([1]; 10 mg/kg): 15 min | Cmax ([1]; 10 mg/kg): 869 ng/mL | CSF Cmax [1]: 1362 ng/mL | Brain Cmax [1]: 2321 ng/mL

CC1CCC2(CC1)CN([C@@H](CCC(=O)O)C(=O)O)C2=O (stereo partly drawn) [EQ, (S)-2-(7-methyl-1-oxo-2-azaspiro[3.5]nonan-2-yl)pentanedioic acid]
EC50 (NMDAR2A): < 1 nM | Emax (NMDAR2A): < 100% | Emax (NMDAR2B): 0%

O=C1NCC12CCC(NCc1ccccc1)CC2 (stereo not shown) [EX]
AUC(0-t) (IV pharmacokinetics; intravenous 2 mg/kg): 659 ng·h/mL | half-life (IV pharmacokinetics; intravenous 2 mg/kg): 70.8 min | C0 (IV pharmacokinetics; intravenous 2 mg/kg): 1340 ng/mL | Vd (IV pharmacokinetics; intravenous 2 mg/kg): 2.71 L/kg | CI (IV pharmacokinetics; intravenous 2 mg/kg): 50.52 mL/min/kg | EC50 (NMDAR2A): < 1 nM | Emax (NMDAR2A): < 100% | EC50 (NMDAR2B): < 1 nM | Emax (NMDAR2B): > 100% | bioavailability [1]: 100% | Tmax [1]: 120 min | AUC(0-t) [1]: 7380 ng·h/mL | Cmax [1]: 3190 ng/mL | CSF Cmax [1]: 459.46 ng/mL | Brain Cmax [1]: 2799.98 ng/mL

CN(Cc1ccccc1)C1CCC2(CC1)CNC2=O (stereo not shown) [EY]
AUC(0-t) (IV pharmacokinetics; intravenous 2 mg/kg): 1210 ng·h/mL | half-life (IV pharmacokinetics; intravenous 2 mg/kg): 33.6 min | C0 (IV pharmacokinetics; intravenous 2 mg/kg): 2100 ng/mL | Vd (IV pharmacokinetics; intravenous 2 mg/kg): 1.09 L/kg | CI (IV pharmacokinetics; intravenous 2 mg/kg): 27.44 mL/min/kg | A: % maximal [3H]MK-801 binding relative to 1 mM glycine (NMDAR2A): − (−=0) | EC50 (NMDAR2B): < 1 nM | Emax (NMDAR2B): < 100% | bioavailability [1]: 48% | Tmax [1]: 30 min | AUC(0-t) [1]: 2920 ng·h/mL | Cmax [1]: 1130 ng/mL | CSF Cmax [1]: 539.09 ng/mL | Brain Cmax [1]: 1833.34 ng/mL

CN(Cc1ccccc1)C1CCC2(CC1)CNC2=O (stereo not shown) [EZ]
A: % maximal [3H]MK-801 binding relative to 1 mM glycine (NMDAR2A): + (<100%=+) | EC50 (NMDAR2A): < 1 nM | A: % maximal [3H]MK-801 binding relative to 1 mM glycine (NMDAR2B): + (<100%=+) | EC50 (NMDAR2B): < 1 nM

CCN(Cc1ccccc1)C1CCC2(CC1)CNC2=O (stereo not shown) [FA]
A: % maximal [3H]MK-801 binding relative to 1 mM glycine (NMDAR2A): − (−=0) | A: % maximal [3H]MK-801 binding relative to 1 mM glycine (NMDAR2B): − (−=0)

CCN(Cc1ccccc1)C1CCC2(CC1)CNC2=O (stereo not shown) [FB]
AUC(0-t) (IV pharmacokinetics; intravenous 2 mg/kg): 782 ng·h/mL | half-life (IV pharmacokinetics; intravenous 2 mg/kg): 45 min | C0 (IV pharmacokinetics; intravenous 2 mg/kg): 981 ng/mL | Vd (IV pharmacokinetics; intravenous 2 mg/kg): 2.33 L/kg | CI (IV pharmacokinetics; intravenous 2 mg/kg): 41.98 mL/min/kg | A: % maximal [3H]MK-801 binding relative to 1 mM glycine (NMDAR2A): + (<100%=+) | EC50 (NMDAR2A): < 1 nM | A: % maximal [3H]MK-801 binding relative to 1 mM glycine (NMDAR2B): + (<100%=+) | EC50 (NMDAR2B): < 1 nM | bioavailability [1]: 87% | Tmax [1]: 30 min | AUC(0-t) [1]: 3410 ng·h/mL | Cmax [1]: 1590 ng/mL | CSF Cmax [1]: 981.8 ng/mL | Brain Cmax [1]: 3632.82 ng/mL

O=C1N(OCc2ccccc2)CC12CCC(O)CC2 (stereo not shown) [FE]
A: % maximal [3H]MK-801 binding relative to 1 mM glycine (NMDAR2A): + (<100%=+) | EC50 (NMDAR2A): < 1 nM | Emax (NMDAR2B): 0%

O=C1N(OCc2ccccc2)CC12CCC(O)CC2 (stereo not shown) [FF]
A: % maximal [3H]MK-801 binding relative to 1 mM glycine (NMDAR2A): − (−=0) | A: % maximal [3H]MK-801 binding relative to 1 mM glycine (NMDAR2B): − (−=0)
